Results published in patent US20260250290A1 (BRISTOL-MYERS SQUIBB COMPANY, priority 2023, published 2026).

Target: T1, full length SGK1 (Homo sapiens, UniProt O00141)
T1 construct: 125 μM full length SGK1 (Life Technologies Part #PR7358A); purchased Life Technologies PR7358A
T1 sequence (O00141 1-431): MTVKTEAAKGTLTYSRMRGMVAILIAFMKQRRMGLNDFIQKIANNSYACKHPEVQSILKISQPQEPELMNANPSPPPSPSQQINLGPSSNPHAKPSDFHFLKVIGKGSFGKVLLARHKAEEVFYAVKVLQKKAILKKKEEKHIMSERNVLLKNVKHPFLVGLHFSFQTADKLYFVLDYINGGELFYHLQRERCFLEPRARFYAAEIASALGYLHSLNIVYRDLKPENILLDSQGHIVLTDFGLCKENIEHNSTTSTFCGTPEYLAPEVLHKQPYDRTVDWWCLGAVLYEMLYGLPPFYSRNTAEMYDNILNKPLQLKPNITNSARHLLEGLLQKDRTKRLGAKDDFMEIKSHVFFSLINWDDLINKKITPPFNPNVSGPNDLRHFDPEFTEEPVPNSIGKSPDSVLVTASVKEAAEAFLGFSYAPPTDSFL
Test: SGK1 inhibition Assay A (Caliper LabChip electrophoretic separation of fluorescent peptide substrate and phosphorylated product)
Assay type: biochemical
Details: Assay A; 20 μM ATP, 40 min incubation; read-out: SGK1 IC50

Compared with `Cc1cc(-c2cc(N3CCC[C@@H](NC(=O)c4sc(C(F)F)cc4OC4COC4)C3)c3c(N)ncnn23)cnc1C#N` [Example 436, (R)-N-(1-(4-amino-7-(6-cyano-5-methylpyridin-3-yl)pyrrolo[2,1-f][1,2,4]triazin-5-yl)piperidin-3-yl)-5-(difluoromethyl)-3-(oxetan-3-yloxy)thiophene-2-carboxamide], `Cc1cc(-c2cc(N3CCC[C@@H](NC(=O)c4sc(C(F)F)cc4OC4CCN(C)CC4)C3)c3c(N)ncnn23)cnc1C#N` [Example 439, (R)-N-(1-(4-amino-7-(6-cyano-5-methylpyridin-3-yl)pyrrolo[2,1-f][1,2,4]triazin-5-yl)piperidin-3-yl)-5-(difluoromethyl)-3-((1-methylpiperidin-4-yl)oxy)thiophene-2-carboxamide] is 6-fold lower in IC50: 12 nM for the first, 2 nM for the second. The second is the more potent here.

First: N#Cc1cc(-c2cc(N3CCC[C@@H](NC(=O)c4sc(C(F)F)cc4OC4COC4)C3)c3c(N)ncnn23)ccn1 [Example 437, (R)-N-(1-(4-amino-7-(2-cyanopyridin-4-yl)pyrrolo[2,1-f][1,2,4]triazin-5-yl)piperidin-3-yl)-5-(difluoromethyl)-3-(oxetan-3-yloxy)thiophene-2-carboxamide]
Second: CN1CCC(Oc2cc(C(F)F)sc2C(=O)N[C@@H]2CCCN(c3cc(-c4ccc(C#N)c(F)c4)n4ncnc(N)c34)C2)CC1 [Example 440, (R)-N-(1-(4-amino-7-(4-cyano-3-fluorophenyl)pyrrolo[2,1-f][1,2,4]triazin-5-yl)piperidin-3-yl)-5-(difluoromethyl)-3-((1-methylpiperidin-4-yl)oxy)thiophenc-2-carboxamide]
The IC50 of the first is 2.7-fold higher: 8 nM for the first, 3 nM for the second.

Compared with `CC(=O)N1CC=C(c2cc(N3CCC[C@@H](NC(=O)c4sc(C(F)F)cc4OC4CCN(C)CC4)C3)c3c(N)ncnn23)C1` [Example 438, (R)—N-(1-(7-(1-acetyl-2,5-dihydro-1H-pyrrol-3-yl)-4-aminopyrrolo[2,1-f][1,2,4]triazin-5-yl)piperidin-3-yl)-5-(difluoromethyl)-3-((1-methylpiperidin-4-yl)oxy)thiophene-2-carboxamide], `COC(=O)N1CC=C(c2cc(N3CCC[C@@H](NC(=O)c4sc(C(F)F)cc4OC4CCN(C(C)C)CC4)C3)c3c(N)ncnn23)C1` [Example 441, Methyl (R)-3-(4-amino-5-(3-(5-(difluoromethyl)-3-((1-isopropylpiperidin-4-yl)oxy)thiophene-2-carboxamido)piperidin-1-yl)pyrrolo[2,1-f][1,2,4]triazin-7-yl)-2,5-dihydro-1H-pyrrole-1-carboxylate] is 1.7-fold higher in IC50: 6 nM for the first, 10 nM for the second.

Going from `CC(=O)N1CC=C(c2cc(N3CCC[C@@H](NC(=O)c4ccc(N(C)C)cc4)C3)c3c(N)ncnn23)C1` [Example 445] to `CC(=O)N1CC=C(c2cc(N3CCC[C@@H](NC(=O)c4ccc(CO)cc4)C3)c3c(N)ncnn23)C1` [Example 457, (R)-N-(1-(7-(1-acetyl-2,5-dihydro-1H-pyrrol-3-yl)-4-aminopyrrolo[2,1-f][1,2,4]triazin-5-yl)piperidin-3-yl)-4-(hydroxymethyl)benzamide], the IC50 rises from 5 nM to 18 nM (3.6-fold).

First: CC(=O)N1CC=C(c2cc(N3CCC[C@@H](NC(=O)c4cnccn4)C3)c3c(N)ncnn23)C1 [Example 446, (R)-N-(1-(7-(1-acetyl-2,5-dihydro-1H-pyrrol-3-yl)-4-aminopyrrolo[2,1-][1,2,4]triazin-5-yl)piperidin-3-yl)pyrazine-2-carboxamide]
Second: CC(=O)N1CC=C(c2cc(N3CCC[C@@H](NC(=O)c4cnc(C)cn4)C3)c3c(N)ncnn23)C1 [Example 451, (R)-N-(1-(7-(1-acetyl-2,5-dihydro-1H-pyrrol-3-yl)-4-aminopyrrolo[2,1-f][1,2,4]triazin-5-yl)piperidin-3-yl)-5-methylpyrazine-2-carboxamide]
The IC50 of the first is 1.8-fold lower: 126 nM for the first, 225 nM for the second. The first is the more potent here.

First: CC(=O)Nc1cccc(C(=O)N[C@@H]2CCCN(c3cc(C4=CCN(C(C)=O)C4)n4ncnc(N)c34)C2)c1 [Example 447, (R)-3-acetamido-N-(1-(7-(1-acetyl-2,5-dihydro-1H-pyrrol-3-yl)-4-aminopyrrolo[2,1-f][1,2,4]triazin-5-yl)piperidin-3-yl)benzamide]
Second: CC(=O)N1CC=C(c2cc(N3CCC[C@@H](NC(=O)c4ccc5ncsc5c4)C3)c3c(N)ncnn23)C1 [Example 452, (R)-N-(1-(7-(1-acetyl-2,5-dihydro-1H-pyrrol-3-yl)-4-aminopyrrolo[2,1-f][1,2,4]triazin-5-yl)piperidin-3-yl)benzo[d]thiazole-6-carboxamide]
The IC50 of the first is 10-fold lower: 19 nM for the first, 198 nM for the second. The first is the more potent here.

Going from `CC(=O)N1CC=C(c2cc(N3CCC[C@@H](NC(=O)c4cccc(C)n4)C3)c3c(N)ncnn23)C1` [Example 448, (R)-N-(1-(7-(1-acetyl-2,5-dihydro-1H-pyrrol-3-yl)-4-aminopyrrolo[2,1-][1,2,4]triazin-5-yl)piperidin-3-yl)-6-methylpicolinamide] to `CC(=O)N1CC=C(c2cc(N3CCC[C@@H](NC(=O)c4cc(C)on4)C3)c3c(N)ncnn23)C1` [Example 455, (R)-N-(1-(7-(1-acetyl-2,5-dihydro-1H-pyrrol-3-yl)-4-aminopyrrolo[2,1-f][1,2,4]triazin-5-yl)piperidin-3-yl)-5-methylisoxazole-3-], the IC50 rises from 4 nM to 246 nM (62-fold). The first is the more potent here.

Going from `CC(=O)N1CC=C(c2cc(N3CCC[C@@H](NC(=O)c4csnn4)C3)c3c(N)ncnn23)C1` [Example 449, (R)-N-(1-(7-(1-acetyl-2,5-dihydro-1H-pyrrol-3-yl)-4-aminopyrrolo[2,1-f][1,2,4]triazin-5-yl)piperidin-3-yl)-1,2,3-thiadiazole-4-] to `CC(=O)N1CC=C(c2cc(N3CCC[C@@H](NC(=O)c4scnc4C)C3)c3c(N)ncnn23)C1` [Example 461, (R)-N-(1-(7-(1-acetyl-2,5-dihydro-1H-pyrrol-3-yl)-4-aminopyrrolo[2,1-f][1,2,4]triazin-5-yl)piperidin-3-yl)-4-methylthiazole-5-carboxamide], the IC50 rises from 34 nM to 89 nM (2.6-fold). The first is the more potent here.

Compared with `CC(=O)N1CC=C(c2cc(N3CCC[C@@H](NC(=O)c4csc(-c5cccnc5)n4)C3)c3c(N)ncnn23)C1` [Example 450, (R)-N-(1-(7-(1-acetyl-2,5-dihydro-1H-pyrrol-3-yl)-4-aminopyrrolo[2,1-f][1,2,4]triazin-5-yl)piperidin-3-yl)-2-(pyridin-3-yl)thiazole-4-carboxamide], `CC(=O)N1CC=C(c2cc(N3CCC[C@@H](NC(=O)c4csc(-c5ccccc5)n4)C3)c3c(N)ncnn23)C1` [Example 453, (R)-N-(1-(7-(1-acetyl-2,5-dihydro-1H-pyrrol-3-yl)-4-aminopyrrolo[2,1-f][1,2,4]triazin-5-yl)piperidin-3-yl)-2-phenylthiazole-4-carboxamide] is 7.6-fold lower in IC50: 53 nM for the first, 7 nM for the second.

First: CC(=O)N1CC=C(c2cc(N3CCC[C@@H](NC(=O)c4ccc(-c5ccccc5)o4)C3)c3c(N)ncnn23)C1 [Example 454, (R)-N-(1-(7-(1-acetyl-2,5-dihydro-1H-pyrrol-3-yl)-4-aminopyrrolo[2,1-f][1,2,4]triazin-5-yl)pipridin-3-yl)-5-phenylfuran-2-carboxamide]
Second: CC(=O)N1CC=C(c2cc(N3CCC[C@@H](NC(=O)c4cc5ccccc5n4C)C3)c3c(N)ncnn23)C1 [Example 456, (R)-N-(1-(7-(1-acetyl-2,5-dihydro-1H-pyrrol-3-yl)-4-aminopyrrolo[2,1-f][1,2,4]triazin-5-yl)piperidin-3-yl)-1-methyl-1H-indole-2-carboxamide]
The IC50 of the first is 41-fold lower: 1 nM for the first, 41 nM for the second.

Going from `CC(=O)N1CC=C(c2cc(N3CCC[C@@H](NC(=O)c4cc(C(C)C)[nH]n4)C3)c3c(N)ncnn23)C1` [Example 458, (R)-N-(1-(7-(1-acetyl-2,5-dihydro-1H-pyrrol-3-yl)-4-aminopyrrolo[2,1-f][1,2,4]triazin-5-yl)piperidin-3-yl)-5-isopropyl-1H-pyrazole-3-carboxamide] to `CC(=O)N1CC=C(c2cc(N3CCC[C@@H](NC(=O)C4=NNC(=O)CC4)C3)c3c(N)ncnn23)C1` [Example 464, (R)-N-(1-(7-(1-acetyl-2,5-dihydro-1H-pyrrol-3-yl)-4-aminopyrrolo[2,1-f][1,2,4]triazin-5-yl)piperidin-3-yl)-6-oxo-1,4,5,6-tetrahydropyridazine-3-carboxamide], the IC50 rises from 3 nM to 636 nM (210-fold).

First: CC(=O)N1CC=C(c2cc(N3CCC[C@@H](NC(=O)C4=NN(c5ccccc5)C(=O)C4)C3)c3c(N)ncnn23)C1 [Example 459, (R)-N-(1-(7-(1-acetyl-2,5-dihydro-1H-pyrrol-3-yl)-4-aminopyrrolo[2,1-f][1,2,4]triazin-5-yl)piperidin-3-yl)-5-oxo-1-phenyl-4,5-dihydro-1H-pyrazole-3-carboxamide]
Second: CC(=O)N1CC=C(c2cc(N3CCC[C@@H](NC(=O)c4ccc(-n5ccnc5)cc4)C3)c3c(N)ncnn23)C1 [Example 460, (R)-N-(1-(7-(1-acetyl-2,5-dihydro-1H-pyrrol-3-yl)-4-aminopyrrolo[2,1-f][1,2,4]triazin-5-yl)piperidin-3-yl)-4-(1H-imidazol-1-yl)benzamide]
The IC50 of the first is 5.9-fold higher: 392 nM for the first, 67 nM for the second. The second is the more potent here.

Compared with `CC(=O)N1CC=C(c2cc(N3CCC[C@@H](NC(=O)c4ccc(-c5ccncc5)cc4)C3)c3c(N)ncnn23)C1` [Example 462, (R)-N-(1-(7-(1-acetyl-2,5-dihydro-1H-pyrrol-3-yl)-4-aminopyrrolo[2,1-f][1,2,4]triazin-5-yl)piperidin-3-yl)-4-(pyridin-4-yl)benzamide], `CC(=O)N1CC=C(c2cc(N3CCC[C@@H](NC(=O)c4ccc(CN5CCOCC5)cc4)C3)c3c(N)ncnn23)C1` [Example 463, (R)-N-(1-(7-(1-acetyl-2,5-dihydro-1H-pyrrol-3-yl)-4-aminopyrrolo[2,1-f][1,2,4]triazin-5-yl)piperidin-3-yl)-4-(morpholinomethyl)benzamide] is 15-fold higher in IC50: 26 nM for the first, 400 nM for the second.
